Experimental data taken from patent US20250084091A1, “INHIBITORS OF SARS-COV-2” (The Texas A&M University System, priority 2021, published 2025).
Like-named read-outs stand apart in the source and are kept apart here.

Tests used:
[1] = target: SARS-CoV-2 main protease (Mpro) (Severe acute respiratory syndrome coronavirus 2, UniProt P0DTD1); assay: biochemical; details: for IC50: read-out: Enzyme IC50; for inhibition at 20 µM: read-out: Enzyme inhibition @ 20 uM
[2] = system: SARS-CoV-2 (strain USA-WA1/2020); assay: microbe, parasite or virus in culture; assay type: cell-based; details: read-out: CoV-2 HeLa EC50
[3] = Table 3, select example compounds against mpro
[4] = Severe acute respiratory syndrome coronavirus 2, HeLa, Table 3

Structure (SMILES)	IC50 ([1]; Table 2) [nM]	other results
Cc1cncc(C(=O)N2CCC(=C(c3cccc(O)c3)c3cccc(O)c3)CC2)c1 [MKP-1381, (4-(bis(3-hydroxyphenyl)methylene)piperidin-1-yl)(5-methylpyridin-3-yl)methanone]	94	–
O=C(c1cncc2cc[nH]c12)N1CCC(N(c2ccccc2)c2ccccc2)CC1 [AA-667, [4-(N-phenylanilino)-1-piperidyl]-(1H-pyrrolo[3,2-c]pyridin-7-yl)methanone]	3320	–
O=C(c1cnccc1Cl)N1CCN(C2c3ccccc3CCc3ccccc32)CC1 [ZS-331, (4-chloro-3-pyridyl)-[4-(2-tricyclo[9.4.0.03,8]pentadeca-1(11),3(8),4,6,12,14-hexaenyl)piperazin-1-yl]methanone]	370	–
O=C(c1cncc2cn[nH]c12)N1CCN(C2c3ccccc3CS(=O)(=O)c3ccccc32)CC1 (centres unmarked) [NZ-822, [4-(5,5-dioxo-6,11-dihydrobenzo[c][1]benzothiepin-11-yl)piperazin-1-yl]-(1H-pyrazolo[4,3-c]pyridin-7-yl)methanone]	–	IC50 [1, 3]: 54 nM; EC50 [2, 4]: 89 nM
Cc1cncc(C(=O)N2CCC(=C(c3ccccn3)c3ccccn3)CC2)c1 [MKP-1422, (4-(di(pyridin-2-yl)methylene)piperidin-1-yl)(5-methylpyridin-3-yl)methanone]	110	–
O=C(c1cncnc1)N1CCN(C(c2ccccc2)c2cccnc2)CC1 (centres unmarked) [MKP-1189, 5-{4-[phenyl(pyridin-3-yl)methyl]piperazine-1-carbonyl}pyrimidine]	–	inhibition at 20 µM [1]: 60%
Cc1cncc(C(=O)N2CCC(=C(c3ccccc3)c3ccncc3)CC2)c1 [MKP-1398, (5-methylpyridin-3-yl)(4-(phenyl(pyridin-4-yl)methylene)piperidin-1-yl)methanone]	580	–
CC(C)(C)OC(=O)NCc1cncc(C(=O)N2CCN(C(c3ccccc3)c3ccccc3)CC2)c1 [PKJ-703, tert-butyl ((5-(4-benzhydrylpiperazine-1-carbonyl)pyridin-3-yl)methyl)carbamate]	930	–
Cc1cncc(C(=O)N2CCN(C(c3ccccc3)c3ccncc3)CC2)c1 (centres unmarked) [MKP-1442, (5-methylpyridin-3-yl)(4-(phenyl(pyridin-4-yl)methyl)piperazin-1-yl)methanone]	1600	–
O=C(c1cncc2cc[nH]c12)N1CCC(=C(c2cccc(O)c2)c2cccc(O)c2)CC1 [MKP-1410, (4-(bis(3-hydroxyphenyl)methylene)piperidin-1-yl)(1H-pyrrolo[3,2-c]pyridin-7-yl)methanone]	41	–
COc1ccccc1C(=C1CCN(C(=O)c2cncc(C)c2)CC1)c1ccccn1 [MKP-1440, (4-((2-methoxyphenyl)(pyridin-2-yl)methylene)piperidin-1-yl)(5-methylpyridin-3-yl)methanone]	170	–
Cc1cncc(C(=O)N2CCN(C(c3ccccc3)c3ccccn3)CC2)c1 (centres unmarked) [MKP-1416, (5-methylpyridin-3-yl)(4-(phenyl(pyridin-2-yl)methyl)piperazin-1-yl)methanone]	176	–
Cc1cncc(C(=O)N2CCN(C(c3cccc(F)c3)c3ccccc3S(C)(=O)=O)CC2)c1 (centres unmarked) [NZ-817, [4-[(3-fluorophenyl)-(2-methylsulfonylphenyl)methyl]piperazin-1-yl]-(5-methyl-3-pyridyl)methanone]	33	–
O=C(c1cncc(Br)c1)N1CCN(C(c2ccccc2)c2cccnc2)CC1 (centres unmarked) [MKP-1200, 1-(5-bromopyridine-3-carbonyl)-4-[phenyl(pyridin-3-yl)methyl]piperazine]	320	–
Cc1cc(C(=O)N2CCN(C3c4ccccc4CS(=O)(=O)c4ccccc43)CC2)cnc1N (centres unmarked) [NZ-819, (6-amino-5-methyl-3-pyridyl)-[4-(5,5-dioxo-6,11-dihydrobenzo[c][1]benzothiepin-11-yl)piperazin-1-yl]methanone]	20000	–
O=C(c1cncc2cn[nH]c12)N1CCC(=C2c3ccccc3CS(=O)(=O)c3ccccc32)CC1 [NZ-821, [4-(5,5-dioxo-6H-benzo[c][1]benzothiepin-11-ylidene)-1-piperidyl]-(1H-pyrazolo[4,3-c]pyridin-7-yl)methanone]	44	IC50 [1, 3]: 44 nM; EC50 [2, 4]: 23 nM
O=C1Nc2ccccc2C(N2CCN(C(=O)c3cncc4cc[nH]c34)CC2)c2ccccc21 (centres unmarked) [NZ-815, 11-[4-(1H-pyrrolo[3,2-c]pyridine-7-carbonyl)piperazin-1-yl]-5,11-dihydrobenzo[c][1]benzazepin-6-one]	30	IC50 [1, 3]: 30 nM; EC50 [2, 4]: 97 nM
O=C1CN(C(=O)N2CCN(C3c4ccccc4CS(=O)(=O)c4ccccc43)CC2)c2ccccc2N1 (centres unmarked) [NZ-812, 4-[4-(5,5-dioxo-6,11-dihydrobenzo[c][1]benzothiepin-11-yl)piperazine-1-carbonyl]-1,3-dihydroquinoxalin-2-one]	550	–
O=C(c1cncc2cc[nH]c12)N1CCC(=C(c2cccc(F)c2)c2cccc(F)c2)CC1 [MKP-1355, (4-(bis(3-fluorophenyl)methylene)piperidin-1-yl)(1H-pyrrolo[3,2-c]pyridin-7-yl)methanone]	28	IC50 [1, 3]: 12 nM; EC50 [2, 4]: 94 nM

Structure (SMILES)	IC50 ([1]; Table 2) [nM]	other results
Cc1cncc(C(=O)C2CCN(C(c3ccccc3)c3ccccc3)CC2=O)c1 (centres unmarked) [PKJ-672, 1-benzhydryl-4-(5-methylnicotinoyl)piperidin-3-one]	760	–
COc1cccc(C(c2ccccc2)N2CCN(C(=O)c3cccnc3)CC2)c1 (centres unmarked) [MKP-1203, 1-[(3-methoxyphenyl)(phenyl)methyl]-4-(pyridine-3-carbonyl)piperazine]	2800	–
NCc1cncc(C(=O)N2CCN(C(c3ccccc3)c3ccccc3)CC2)c1 [PKJ-704, (5-(aminomethyl)pyridin-3-yl)(4-benzhydrylpiperazin-1-yl)methanone]	1600	–
CS(=O)(=O)c1ccccc1C(c1ccccc1)N1CCN(C(=O)c2cncc3cc[nH]c23)CC1 (centres unmarked) [NZ-814, [4-[(2-methylsulfonylphenyl)-phenyl-methyl]piperazin-1-yl]-(1H-pyrrolo[3,2-c]pyridin-7-yl)methanone]	53	–
O=C1Nc2ccc(F)cc2C1CC(=O)N1CCN(C(c2ccccc2)c2ccccc2)CC1 (centres unmarked) [PKJ-663, 3-(2-(4-benzhydrylpiperazin-1-yl)-2-oxoethyl)-5-fluoroindolin-2-one]	> 80000	–
COc1cccc(C(c2ccccc2)N2CCN(C(=O)c3cncc(Cl)c3)CC2)c1 (centres unmarked) [MKP-1205, 1-(5-chloropyridine-3-carbonyl)-4-[(3-methoxyphenyl)(phenyl)methyl] piperazine]	550	–
Cc1cncc(C(=O)N2CCC(N(c3cccc(F)c3)c3cccc(F)c3)CC2)c1 [MKP-1404, (4-(bis(3-fluorophenyl)amino)piperidin-1-yl)(5-methylpyridin-3-yl)methanone]	2660	–
O=C(c1cncc2cc[nH]c12)N1CCN(C(c2cccc(F)c2)c2cccc(F)c2)CC1 [MKP-1371, (4-(bis(3-fluorophenyl)methyl)piperazin-1-yl)(1H-pyrrolo[3,2-c]pyridin-7-yl)methanone]	25	IC50 [1, 3]: 13 nM; EC50 [2, 4]: 47 nM
CC(=O)Nc1ncc(C(=O)N2CCN(C3c4ccccc4CS(=O)(=O)c4ccccc43)CC2)cc1C (centres unmarked) [NZ-820, N-[5-[4-(5,5-dioxo-6,11-dihydrobenzo[c][1]benzothiepin-11-yl)piperazine-1-carbonyl]-3-methyl-2-pyridyl]acetamide]	> 80000	–
CS(=O)(=O)c1ccccc1C(c1cccc(F)c1)N1CCN(C(=O)c2cncc3cc[nH]c23)CC1 (centres unmarked) [NZ-816, [4-[(3-fluorophenyl)-(2-methylsulfonylphenyl)methyl]piperazin-1-yl]-(1H-pyrrolo[3,2-c]pyridin-7-yl)methanone]	30	IC50 [1, 3]: 17 nM; EC50 [2, 4]: 40 nM
Cc1cncc(C(=O)N2CCC(=C(c3ccc(F)cc3)c3cccc(F)c3)CC2)c1 [MKP-1359, (4-((3-fluorophenyl)(4-fluorophenyl)methylene)piperidin-1-yl)(5-methylpyridin-3-yl)methanone]	44	–
O=C(c1cnccn1)N1CCN(C(c2ccccc2)c2cccnc2)CC1 (centres unmarked) [MKP-1188, 2-{4-[phenyl(pyridin-3-yl)methyl]piperazine-1-carbonyl}pyrazine]	–	inhibition at 20 µM [1]: 50%
Cc1cncc(C(=O)N2CCC(=C(c3cccc(F)c3)c3cccc(F)c3)CC2)c1 [MKP-1349, (4-(bis(3-fluorophenyl)methylene)piperidin-1-yl)(5-methylpyridin-3-yl)methanone]	42	–
Cc1cncc(CN2CCN(C(c3ccccc3)c3ccccc3)CC2=O)c1 [AA-646, 4-benzhydryl-1-((5-methylpyridin-3-yl)methyl)piperazin-2-one]	6100	EC50 ([2]; Severe acute respiratory syndrome coronavirus 2, Table 2, SARS-CoV-2 infected HeLa-ACE2 cells): 5200 nM
Cc1cncc(C(=O)N2CCC(=C(c3ccccc3)c3ccccn3)CC2)c1 [MKP-1400, (5-methylpyridin-3-yl)(4-(phenyl(pyridin-2-yl)methylene)piperidin-1-yl)methanone]	74	–
Cc1cncc(C(=O)N2CCC(=C(c3ccccc3)C3CCCCC3)CC2)c1 [MKP-1421, (4-(cyclohexyl(phenyl)methylene)piperidin-1-yl)(5-methylpyridin-3-yl)methanone]	920	–
Cc1cncc(C(=O)N2CCC(=C(c3ccccc3)c3cccc(F)c3)CC2)c1 [MKP-1360, (4-((3-fluorophenyl)(phenyl)methylene)piperidin-1-yl)(5-methylpyridin-3-yl)methanone]	35	–
O=C(C1CNCCO1)N1CCN(C(c2ccccc2)c2ccccc2)CC1 (centres unmarked) [AA-582, (4-benzhydrylpiperazin-1-yl)(morpholin-2-yl)methanone]	–	inhibition at 20 µM [1]: 60%
Cc1cncc(C(=O)N2CCC(=C(c3cccnc3)c3cccc(O)c3)CC2)c1 [MKP-1392, (4-((3-hydroxyphenyl)(pyridin-3-yl)methylene)piperidin-1-yl)(5-methylpyridin-3-yl)methanone]	93	–
